Experiments:
Format in all cases: in vivo
[1] = test system: Echinochloa crus-galli (ECHCG); test: Pre-emergence Test (glasshouse, percentage damage to the plant); settings: 1000 g/ha unless otherwise stated, five-point scale
Setaria faberi (SETFA) [2] = test: as above; settings: 1000 g/ha unless otherwise stated, five-point scale
[3] = test system: Ipomoea hederacea (IPOHE); test: as above; settings: 1000 g/ha unless otherwise stated, five-point scale
[4] = test system: Amaranthus retoflexus (AMARE); test: as above; settings: 1000 g/ha unless otherwise stated, five-point scale
Solanum nigrum (SOLNI) [5] = test: as above; settings: 1000 g/ha unless otherwise stated, five-point scale
Lolium perenne (LOLPE) [6] = test: as above; settings: 1000 g/ha unless otherwise stated, five-point scale
[7] = test system: Amaranthus retoflexus (AMARE); test: Post-emergence Test (glasshouse, percentage damage to the plant); settings: post-emergence spray, 1000 g/ha unless otherwise stated, evaluated after 13 days
Procedure, shortened: (§1)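 Seeds sown in standard soil in a glasshouse (24/16 °C day/night, 14 h light, 65% humidity), then sprayed with an aqueous solution of the compound formulated in acetone/water 50:50 with 0.5% Tween 20 at 1000 g/ha unless otherwise stated. Percentage damage was scored after 13 days on a five-point scale (5=81-100%; 1=0-20%).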

[8] = test system: Echinochloa crus-galli (ECHCG); test: as above; settings: post-emergence spray, 1000 g/ha unless otherwise stated, evaluated after 13 days
Procedure, shortened: as §1

Lolium perenne (LOLPE) [9] = test: as above; settings: post-emergence spray, 1000 g/ha unless otherwise stated, evaluated after 13 days
Procedure, shortened: as §1

[10] = test system: Ipomoea hederacea (IPOHE); test: as above; settings: post-emergence spray, 1000 g/ha unless otherwise stated, evaluated after 13 days
Procedure, shortened: (§2)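 Scored 13 days after spraying as percentage plant damage in five bands (5=81–100%, 4=61–80%, 3=41–60%, 2=21–40%, 1=0–20%). Spray at 1000 g/ha unless stated, in acetone/water 50:50 plus 0.5% Tween 20, onto sown glasshouse pots (24/16 °C, 14 h light, 65% humidity).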

Solanum nigrum (SOLNI) [11] = test: as above; settings: post-emergence spray, 1000 g/ha unless otherwise stated, evaluated after 13 days
Procedure, shortened: as §1

Setaria faberi (SETFA) [12] = test: as above; settings: post-emergence spray, 1000 g/ha unless otherwise stated, evaluated after 13 days
Procedure, shortened: as §2

SMILES	percentage damage to the plant, ECHCG [1]	percentage damage to the plant, SETFA (Setaria faberi (SETFA) [2])	percentage damage to the plant, IPOHE [3]	percentage damage to the plant, AMARE [4]	percentage damage to the plant, SOLNI (Solanum nigrum (SOLNI) [5])	percentage damage to the plant, LOLPE (Lolium perenne (LOLPE) [6])	Post-emergence Test AMARE, percentage damage to the plant (five-point scale) [7]	Post-emergence Test ECHCG, percentage damage to the plant (five-point scale) [8]	Post-emergence Test LOLPE, percentage damage to the plant (five-point scale) (Lolium perenne (LOLPE) [9])	Post-emergence Test IPOHE, percentage damage to the plant (five-point scale) [10]	Post-emergence Test SOLNI, percentage damage to the plant (five-point scale) (Solanum nigrum (SOLNI) [11])	Post-emergence Test SETFA, percentage damage to the plant (five-point scale) (Setaria faberi (SETFA) [12])
CCn1c(C)c(-c2ccc(Cl)c(F)c2)c(=O)c(C(=O)O)c1-c1ccc(Cl)c(Cl)c1 [Compound 9, 5-(4-chloro-3-fluoro-phenyl)-2-(3,4-dichlorophenyl)-1-ethyl-6-methyl-4-oxo-pyridine-3-carboxylic acid]	5 (5=81-100%)	4 (4=61-80%)	1 (1=0-20%)	5 (5=81-100%)	3 (3=41-60%)	1 (1=0-20%)	5 (5=81-100%)	5 (5=81-100%)	1 (1=0-20%)	3 (3=41-60%)	3 (3=41-60%)	5 (5=81-100%)
CCn1c(C)c(-c2cncn2C)c(=O)c(C(=O)O)c1-c1ccc(Cl)c(Cl)c1 [Compound 40, 2-(3,4-dichlorophenyl)-1-ethyl-6-methyl-5-(3-methylimidazol-4-yl)-4-oxo-pyridine-3-carboxylic acid]	1 (1=0-20%)	1 (1=0-20%)	1 (1=0-20%)	1 (1=0-20%)	1 (1=0-20%)	1 (1=0-20%)	1 (1=0-20%)	1 (1=0-20%)	1 (1=0-20%)	1 (1=0-20%)	2 (2=21-40%)	1 (1=0-20%)
CCn1c(C)c(-c2cscc2C)c(=O)c(C(=O)O)c1-c1ccc(Cl)c(Cl)c1 [Compound 20, 2-(3,4-dichlorophenyl)-1-ethyl-6-methyl-5-(4-methyl-3-thienyl)-4-oxo-pyridine-3-carboxylic acid]	2 (2=21-40%)	4 (4=61-80%)	1 (1=0-20%)	1 (1=0-20%)	2 (2=21-40%)	3 (3=41-60%)	4 (4=61-80%)	3 (3=41-60%)	2 (2=21-40%)	2 (2=21-40%)	3 (3=41-60%)	4 (4=61-80%)
CCn1c(C)c(-c2ccc(C(F)(F)F)cc2)c(=O)c(C(=O)O)c1-c1ccc(Cl)c(Cl)c1 [Compound 26, 2-(3,4-dichlorophenyl)-1-ethyl-6-methyl-4-oxo-5-[4-(trifluoromethyl)phenyl]pyridine-3-carboxylic acid]	1 (1=0-20%)	1 (1=0-20%)	1 (1=0-20%)	1 (1=0-20%)	1 (1=0-20%)	1 (1=0-20%)	5 (5=81-100%)	4 (4=61-80%)	1 (1=0-20%)	4 (4=61-80%)	2 (2=21-40%)	5 (5=81-100%)
CCn1c(C)c(-c2cccc(OC(F)(F)F)c2)c(=O)c(C(=O)O)c1-c1ccc(Cl)c(Cl)c1 [Compound 16, 2-(3,4-dichlorophenyl)-1-ethyl-6-methyl-4-oxo-5-[3-(trifluoromethoxy)phenyl]pyridine-3-carboxylic acid]	4 (4=61-80%)	3 (3=41-60%)	2 (2=21-40%)	1 (1=0-20%)	1 (1=0-20%)	1 (1=0-20%)	4 (4=61-80%)	5 (5=81-100%)	1 (1=0-20%)	4 (4=61-80%)	4 (4=61-80%)	5 (5=81-100%)
CCn1c(C)c(-c2ccc(S(C)(=O)=O)cc2)c(=O)c(C(=O)O)c1-c1ccc(Cl)c(Cl)c1 [Compound 32, 2-(3,4-dichlorophenyl)-1-ethyl-6-methyl-5-(4-methylsulfonylphenyl)-4-oxo-pyridine-3-carboxylic acid]	4 (4=61-80%)	4 (4=61-80%)	1 (1=0-20%)	1 (1=0-20%)	1 (1=0-20%)	1 (1=0-20%)	1 (1=0-20%)	4 (4=61-80%)	1 (1=0-20%)	1 (1=0-20%)	3 (3=41-60%)	3 (3=41-60%)

Reference: patent publication US12660819B2, “Herbicidal derivatives” (SYNGENTA CROP PROTECTION AG, priority 2020, dated 2026)
